Source: article PMC8821551, “Binding of cationic analogues of α-MSH to lipopolysaccharide and disruption of the cytoplasmic membranes caused bactericidal action against Escherichia coli” (Scientific Reports, 2022)
Residues, ends and D or L forms follow the SMILES beside them.

What was measured:
[1] = tested on: E. coli cytoplasmic or inner membrane; assay: Membrane depolarization assay (DiSC3(5)); format: cell-based, Escherichia coli; details: DiSC3(5) 0.4 µM, 0.2 mM EDTA, 10^6 CFU/mL mid-log cells, HEPES-glucose buffer; peptide 1 to 10 µM
Protocol: (§1) The membrane depolarization of E. coli cells was determined using a potentiometric fluorescent probe DiSC3(5), as described elsewhere. Briefly, mid-log phase E. coli cells were diluted to 10^6 CFU/mL in the same HEPES-glucose buffer and were incubated with DiSC3(5) and EDTA at 0.4 µM and 0.2 mM concentrations, respectively, for 1 h in the dark at 37 °C, till the maximum uptake of the probe occurred. Increasing concentrations of the studied peptides from 1 µM to 10 µM were then added to these dye-loaded cells in a quartz cuvette, and the fluorescence intensity was measured on spectrofluorimeter (Shimadzu RF-5301 PC) set as excitation at 622 nm and emission at 670 nm. The increase in fluorescence intensity accounted for the dissipation of membrane potential caused due to peptide treatment. Cells treated with 10 µM melittin were used as a positive control. Simultaneously, the dye-loaded cells were plated onto LB agar to estimate bacterial cell death.

dye-loaded E. coli cells = assay: Viability of DiSC3(5) dye-loaded cells by plating; format: cell-based, Escherichia coli; details: dye-loaded cells 10^6, HEPES-glucose buffer, two different days
Protocol: as §1
Figure S1: Survival of dye-loaded cells (10^6) treated with various concentrations of peptides that correspond to the inner membrane depolarization. The dye-loaded E. coli cells suspended in HEPES-glucose buffer ([…]) were incubated with different concentration of α-MSH and its analogues for 2 minutes and further diluted in the same buffer and plated on LB agar plates. The plates were further incubated at 37 °C for 16 h. Next day the colonies were counted.^1 The experiment was performed on two different days and the representative values (mean ± SE) are shown in graph. (⁎, P < 0.05; ⁎⁎, P < 0.01, compared to that of control at the same concentration).

E. coli ATCC 25922 = assay: Killing assay (killing kinetics), logarithmic phase cells; format: cell-based, Escherichia coli; details: for concentration at which a bactericidal effect (> 3 log reduction) was achieved: logarithmic phase E. coli cells (Fig. 1); for log reduction in cell viability: average ± SE, SEM
Protocol: For this study, a well-characterized strain of E. coli (ATCC 25922) was used. The strain was stored at − 80 °C in 15% (v/v) glycerol until sub-cultured onto LB agar plates for use.
The antibacterial activity of α-MSH and its cationic analogues was determined against both logarithmic (2–3 h) and stationary (16–18 h) phase of E. coli cells in LB medium. The bacterial suspension was pelleted, washed, and diluted in HEPES-glucose buffer (5 mM HEPES, 20 mM glucose, pH 7.4) to adjust the cell density by measuring the OD = 0.5 (10^8 CFU/mL) at 600 nm using a spectrophotometer. This suspension was used to obtain the desired inoculum sizes (10^5 CFU/mL, 10^6 CFU/mL, and 10^7 CFU/mL). The inoculums were exposed to various concentrations of peptides (1 µM, 2 µM, 5 µM, and 10 µM) and incubated at 37 °C. Untreated E. coli cells were also included as a control. At selected time points (0 min, 15 min, 30 min, 60 min, and 120 min), aliquots were taken out, and survival of E. coli cells was determined by quantitative plating on LB agar after appropriate dilution in the same buffer. The plates were incubated overnight at 37 °C, followed by colony counting. Each experiment was performed at least three times on three independent days.

E. coli cells = assay: LPS competitive inhibition assay; format: cell-based, Escherichia coli; details: peptide fixed at 10 µM, free LPS beyond 128 µg/mL; 10^5 CFU/mL mid-log cells, 90 min, 37 °C; peptide without LPS = 100% mortality
Protocol: To determine whether LPS could influence the peptide’s antimicrobial activity, the potency of the most charged analogue, KKK-MSH, was evaluated against E. coli in the presence of LPS, using the protocol reported elsewhere. Peptide and LPS from E. coli […] (Sigma-Aldrich, India) in equal volume (50 µL) were incubated in a 96-well sterile plate at 37 °C for 1 h. After that, 100 μL of mid-log E. coli cells were added (at a final concentration of 10^5 CFU/mL) to the LPS-peptide mixture for 90 min at 37 °C. The peptide concentration was kept constant at 10 µM, and the concentration of LPS was varied from 2 to 1024 μg/mL. After incubation, 50 μL of the reaction mixture from each well was diluted with an appropriate amount of HEPES-glucose buffer, spread on LB agar plates, and kept at 37 °C for 16 h. Then on the next day, colonies were counted and compared with control (in the absence of LPS, cells treated with only peptide were considered 100% mortal). Mortality was calculated using the following formula: %survival=CFU/mLintreatedsample/CFU/mLinuntreatedsample×100Cellmortality(%)=100-%survival

LPS from E. coli O55:B5 = assay: LPS binding assay (BODIPY-TR-cadaverine displacement); design: species or system Escherichia coli; details: BC displacement, LPS 50 μg/mL, 5 µM BC, 50 mM Tris buffer pH 7.4, peptide 0.25 to 20 µM, Hill equation fit, mean Kd ± SD of two independent experiments, read-out: Kd (dissociation constant) with LPS
Protocol: The binding of α-MSH and its analogues to LPS was checked using BODIPY-TR-cadaverine (BC) as a fluorescent probe[24],[42]. BC fluorescence decreases when bound to cell-free LPS and increases when it is freely accessible in solution. LPS (50 μg/mL) from E. coli O55:B5 (Sigma-Aldrich, India) was incubated with 5 µM of BC in 50 mM Tris buffer (pH 7.4) for 4 h. Next, 800 µL of this LPS-BC mixture was added to varying concentrations (0.25 µM to 20 µM) of the peptides in a quartz cuvette, and the BC fluorescence was measured on a spectrofluorimeter (Shimadzu RF-5301 PC) with excitation at 580 nm and emission at 620 nm. Each experiment was done in duplicate independently. Increase in fluorescence intensities with increase in concentration of peptides were plotted and the dissociation constant (Kd) was calculated from each individual data set and is presented as mean value ± SD using Igor Pro 6.36 (Y = Bmax × Xˆh/(Kdˆh + Xˆh); where X: concentration of peptide (µM), Y: fluorescence intensity (a.u.), h: Hill slope)[43]. The molecular mass of LPS was taken as 20,000 Da as described elsewhere, and its concentration was calculated accordingly.
Table S1: The dissociation constant (Kd) of α-MSH and its analogues with LPS. […]

[2] = peptide 10 µM, 2 min of exposure

SMILES: CSCC[C@H](NC(=O)[C@H](CCCCN)NC(=O)[C@H](Cc1ccc(O)cc1)NC(=O)[C@H](CCCCN)NC(C)=O)C(=O)N[C@@H](C)C(=O)N[C@@H](Cc1c[nH]cn1)C(=O)N[C@@H](Cc1ccccc1)C(=O)N[C@@H](CCCNC(=N)N)C(=O)N[C@@H](Cc1c[nH]c2ccccc12)C(=O)NCC(=O)N[C@@H](CCCCN)C(=O)N1CCC[C@H]1C(=O)N[C@H](C(N)=O)C(C)C [KKA-MSH] (Ac-KYKMAHFRWGKPV-NH2)
- lowest concentration that induced depolarization of E. coli inner membrane [1]: 2 µM
- log reduction in cell viability of dye-loaded cells (dye-loaded E. coli cells; peptide 5 µM, 2 min exposure): 1 log
- log reduction in cell viability of dye-loaded cells (dye-loaded E. coli cells; [2]): 1 log
- concentration at which a bactericidal effect (> 3 log reduction) was achieved (E. coli ATCC 25922): 5 µM
- log reduction in cell viability (E. coli ATCC 25922; logarithmic phase, 10^5 CFU/mL, HEPES-glucose buffer pH 7.4, 37 °C, peptide 1 µM, 1 h, three independent experiments): 1.8 ± 0.1 log
- log reduction in cell viability (E. coli ATCC 25922; logarithmic phase, 10^5 CFU/mL, HEPES-glucose buffer pH 7.4, 37 °C, peptide 1 µM, 2 h, three independent experiments): 2.1 ± 0.1 log
- log reduction in cell viability (E. coli ATCC 25922; logarithmic phase, 10^5 CFU/mL, HEPES-glucose buffer pH 7.4, 37 °C, peptide 2 µM, 1 h, three independent experiments): 2.7 ± 0.3 log
- log reduction in cell viability (E. coli ATCC 25922; logarithmic phase, 10^5 CFU/mL, HEPES-glucose buffer pH 7.4, 37 °C, peptide 2 µM, 2 h, three independent experiments): 2.9 ± 0.2 log
- change of killing activity at 5 µM against lower concentrations, in words (E. coli ATCC 25922; logarithmic phase, 10^5 CFU/mL, peptide 5 µM): no change in its activity
- bactericidal effect (> 3 log reduction), in words (E. coli ATCC 25922; logarithmic phase, 10^5 CFU/mL, peptide 2, 5 and 10 µM, 1 h of incubation): accomplished bactericidal effect
- log reduction in cell viability (E. coli ATCC 25922; logarithmic phase, 10^6 CFU/mL, peptide 10 µM, 2 h, three independent days): 3.5 ± 0.2 log
- log reduction in cell viability (E. coli ATCC 25922; logarithmic phase, 10^7 CFU/mL, peptide 10 µM, 2 h, three independent days): 2.7 ± 0.02 log

SMILES: CSCC[C@H](NC(=O)[C@H](CCCCN)NC(=O)[C@H](Cc1ccc(O)cc1)NC(=O)[C@H](CCCCN)NC(C)=O)C(=O)N[C@@H](CCCCN)C(=O)N[C@@H](Cc1c[nH]cn1)C(=O)N[C@@H](Cc1ccccc1)C(=O)N[C@@H](CCCNC(=N)N)C(=O)N[C@@H](Cc1c[nH]c2ccccc12)C(=O)NCC(=O)N[C@@H](CCCCN)C(=O)N1CCC[C@H]1C(=O)N[C@H](C(N)=O)C(C)C [KKK-MSH] (Ac-KYKMKHFRWGKPV-NH2)
- lowest concentration that induced depolarization of E. coli inner membrane [1]: 2 µM
- killing of E. coli cells in the presence of free LPS (E. coli cells): less than 20%
- log reduction in cell viability of dye-loaded cells (dye-loaded E. coli cells; peptide 5 µM, 2 min exposure): 1.73 log
- log reduction in cell viability of dye-loaded cells (dye-loaded E. coli cells; [2]): 2.1 log
- Kd (LPS from E. coli O55:B5): 9.8 ± 6.3 µM
- concentration at which a bactericidal effect (> 3 log reduction) was achieved (E. coli ATCC 25922): 1 µM
- incubation time to complete eradication of the cells (E. coli ATCC 25922; logarithmic phase, 10^5 CFU/mL, HEPES-glucose buffer, 37 °C, peptide 1 µM): ≤ 15 min
- incubation time to complete eradication of the cells (E. coli ATCC 25922; logarithmic phase, 10^5 CFU/mL, HEPES-glucose buffer, 37 °C, peptide 2 µM): ≤ 15 min
- log reduction in cell viability (bactericidal effect) (E. coli ATCC 25922; logarithmic phase, 10^5 CFU, peptide 1 µM, within 15 min): > 3 log
- complete eradication of the cells, in words (E. coli ATCC 25922; logarithmic phase, 10^6 CFU/mL, peptide 1 µM): not at 1 µM concentration
- incubation time to complete eradication of the cells (E. coli ATCC 25922; logarithmic phase, 10^6 CFU/mL, peptide 2 µM): 60 min
- incubation time to complete eradication of the cells (E. coli ATCC 25922; logarithmic phase, 10^6 CFU/mL, peptide 5 µM): 30 min
- incubation time to complete eradication of the cells (E. coli ATCC 25922; logarithmic phase, 10^6 CFU/mL, peptide 10 µM): 15 min
- incubation time to no viable cells (E. coli ATCC 25922; logarithmic phase, 10^7 CFU/mL, peptide 10 µM): 1 h
- lowest concentration at which the bactericidal effect was maintained (E. coli ATCC 25922; logarithmic phase, high cell density): 2 µM
